Measured values as given in PubChem BioAssay (NCI).
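1) Cells in 96-well plates. 2) Compound, 48 h, 5 concentrations. 3) Linear interpolation between surrounding doses. 4) Unreached endpoint = highest concentration. TGI is the concentration that stops growth completely.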

Columns and labels:
Test in all cases: NCI tumour cell line growth inhibition, 48 h
UO-31 renal = tested on: UO-31 renal
DLD-1 colon = tested on: DLD-1 colon
UACC-257 melanoma = tested on: UACC-257 melanoma
MOLT-4 leukemia = tested on: MOLT-4 leukemia
TK-10 renal = tested on: TK-10 renal
SNB-78 CNS = tested on: SNB-78 CNS
MALME-3M melanoma = tested on: MALME-3M melanoma
HCT-15 colon = tested on: HCT-15 colon
OVCAR-8 ovarian = tested on: OVCAR-8 ovarian
HOP-62 NSCLC = tested on: HOP-62 NSCLC
SK-MEL-5 melanoma = tested on: SK-MEL-5 melanoma
HT29 colon = tested on: HT29 colon
SF-268 CNS = tested on: SF-268 CNS
M19-MEL melanoma = tested on: M19-MEL melanoma
NCI-H226 lung = tested on: NCI-H226 lung
RPMI-8226 leukemia = tested on: RPMI-8226 leukemia
HL-60(TB) leukemia = tested on: HL-60(TB) leukemia
SN12C renal = tested on: SN12C renal
IGROV1 ovarian = tested on: IGROV1 ovarian
SK-OV-3 ovarian = tested on: SK-OV-3 ovarian
K-562 leukemia = tested on: K-562 leukemia
KM12 colon = tested on: KM12 colon
CAKI-1 renal = tested on: CAKI-1 renal
OVCAR-5 ovarian = tested on: OVCAR-5 ovarian
LOX IMVI melanoma = tested on: LOX IMVI melanoma
XF 498 CNS = tested on: XF 498 CNS
SNB-19 CNS = tested on: SNB-19 CNS
SR leukemia = tested on: SR leukemia
HOP-18 NSCLC = tested on: HOP-18 NSCLC
A549 NSCLC = tested on: A549 NSCLC
U251 CNS = tested on: U251 CNS
LXFL 529 NSCLC = tested on: LXFL 529 NSCLC
SNB-75 CNS = tested on: SNB-75 CNS
A498 renal = tested on: A498 renal
NCI-H23 lung = tested on: NCI-H23 lung
SK-MEL-28 melanoma = tested on: SK-MEL-28 melanoma
CCRF-CEM leukemia = tested on: CCRF-CEM leukemia
SW-620 colon = tested on: SW-620 colon
OVCAR-3 ovarian = tested on: OVCAR-3 ovarian
SF-539 CNS = tested on: SF-539 CNS
DMS 273 small cell lung = tested on: DMS 273 small cell lung
DMS 114 small cell lung = tested on: DMS 114 small cell lung
786-0 renal = tested on: 786-0 renal
HCC-2998 colon = tested on: HCC-2998 colon
RXF-631 renal = tested on: RXF-631 renal
ACHN renal = tested on: ACHN renal
RXF 393 renal = tested on: RXF 393 renal
M14 melanoma = tested on: M14 melanoma
SF-295 CNS = tested on: SF-295 CNS
OVCAR-4 ovarian = tested on: OVCAR-4 ovarian
HCT-116 colon = tested on: HCT-116 colon
HOP-92 NSCLC = tested on: HOP-92 NSCLC
UACC-62 melanoma = tested on: UACC-62 melanoma
KM20L2 colon = tested on: KM20L2 colon
NCI/ADR-RES ovarian = tested on: NCI/ADR-RES ovarian
P388 leukemia = tested on: P388 leukemia
MCF7 breast = tested on: MCF7 breast
NCI-H460 lung = tested on: NCI-H460 lung
P388/ADR leukemia = tested on: P388/ADR leukemia
SK-MEL-2 melanoma = tested on: SK-MEL-2 melanoma
NCI-H522 lung = tested on: NCI-H522 lung
EKVX NSCLC = tested on: EKVX NSCLC
SN12K1 renal = tested on: SN12K1 renal
COLO 205 colon = tested on: COLO 205 colon

CC(=O)N1C/C(=C\c2ccc(N(C)C)cc2)C(=O)/C(=C/c2ccc(N(C)C)cc2)C1
TGI (UO-31 renal): > 100 µM | TGI (DLD-1 colon): > 100 µM | TGI (UACC-257 melanoma): > 100 µM | TGI (MOLT-4 leukemia): > 100 µM | TGI (TK-10 renal): > 100 µM | TGI (SNB-78 CNS): > 100 µM | TGI (MALME-3M melanoma): > 100 µM | TGI (HCT-15 colon): > 100 µM | TGI (OVCAR-8 ovarian): > 100 µM | TGI (HOP-62 NSCLC): > 100 µM | TGI (SK-MEL-5 melanoma): > 100 µM | TGI (HT29 colon): > 100 µM | TGI (SF-268 CNS): > 100 µM | TGI (M19-MEL melanoma): > 100 µM | TGI (NCI-H226 lung): > 100 µM | TGI (RPMI-8226 leukemia): > 100 µM | TGI (HL-60(TB) leukemia): > 100 µM | TGI (SN12C renal): > 100 µM | TGI (IGROV1 ovarian): > 100 µM | TGI (SK-OV-3 ovarian): > 100 µM | TGI (K-562 leukemia): > 100 µM | TGI (KM12 colon): > 100 µM | TGI (CAKI-1 renal): > 100 µM | TGI (OVCAR-5 ovarian): > 100 µM | TGI (LOX IMVI melanoma): > 100 µM | TGI (XF 498 CNS): > 100 µM | TGI (SNB-19 CNS): > 100 µM | TGI (SR leukemia): > 100 µM | TGI (HOP-18 NSCLC): > 100 µM | TGI (A549 NSCLC): > 100 µM | TGI (U251 CNS): > 100 µM | TGI (LXFL 529 NSCLC): > 100 µM | TGI (SNB-75 CNS): 49.4 µM | TGI (A498 renal): > 100 µM | TGI (NCI-H23 lung): > 100 µM | TGI (SK-MEL-28 melanoma): > 100 µM | TGI (CCRF-CEM leukemia): > 100 µM | TGI (SW-620 colon): > 100 µM | TGI (OVCAR-3 ovarian): 56.3 µM | TGI (SF-539 CNS): 52.2 µM | TGI (DMS 273 small cell lung): > 100 µM | TGI (DMS 114 small cell lung): 60.1 µM | TGI (786-0 renal): > 100 µM | TGI (HCC-2998 colon): > 100 µM | TGI (RXF-631 renal): > 100 µM | TGI (ACHN renal): > 100 µM | TGI (RXF 393 renal): > 100 µM | TGI (M14 melanoma): > 100 µM | TGI (SF-295 CNS): > 100 µM | TGI (OVCAR-4 ovarian): > 100 µM | TGI (HCT-116 colon): > 100 µM | TGI (HOP-92 NSCLC): > 100 µM | TGI (UACC-62 melanoma): > 100 µM | TGI (KM20L2 colon): > 100 µM

C=C(C)C(=O)OC1CCC2(C)C(CCC3C2CCC2(C)C(c4ccc(=O)oc4)CC4OC432)C1 (stereo unspecified)
TGI (NCI/ADR-RES ovarian): 26 µM | TGI (UO-31 renal): 35.8 µM | TGI (DLD-1 colon): 7.38 µM | TGI (UACC-257 melanoma): 17.2 µM | TGI (P388 leukemia): 15.5 µM | TGI (MOLT-4 leukemia): 15.5 µM | TGI (SNB-78 CNS): 60.7 µM | TGI (MALME-3M melanoma): 26.4 µM | TGI (HCT-15 colon): 32 µM | TGI (MCF7 breast): 13.2 µM | TGI (NCI-H460 lung): 7.99 µM | TGI (OVCAR-8 ovarian): 24 µM | TGI (HOP-62 NSCLC): 10.5 µM | TGI (SK-MEL-5 melanoma): 19.1 µM | TGI (HT29 colon): 52 µM | TGI (SF-268 CNS): 31.9 µM | TGI (M19-MEL melanoma): 10.7 µM | TGI (NCI-H226 lung): 48.1 µM | TGI (RPMI-8226 leukemia): 20.1 µM | TGI (HL-60(TB) leukemia): 9.64 µM | TGI (SN12C renal): 24.1 µM | TGI (IGROV1 ovarian): 20.5 µM | TGI (SK-OV-3 ovarian): 99.8 µM | TGI (K-562 leukemia): 32.9 µM | TGI (KM12 colon): 24.3 µM | TGI (P388/ADR leukemia): 31.7 µM | TGI (CAKI-1 renal): 15 µM | TGI (OVCAR-5 ovarian): 106 µM | TGI (LOX IMVI melanoma): 24.1 µM | TGI (XF 498 CNS): 21 µM | TGI (SNB-19 CNS): 72.5 µM | TGI (HOP-18 NSCLC): 104 µM | TGI (A549 NSCLC): 25.4 µM | TGI (U251 CNS): 30.3 µM | TGI (SNB-75 CNS): 36.6 µM | TGI (A498 renal): 21.8 µM | TGI (NCI-H23 lung): 19.3 µM | TGI (SK-MEL-2 melanoma): 10.2 µM | TGI (SK-MEL-28 melanoma): 44.5 µM | TGI (CCRF-CEM leukemia): 15.3 µM | TGI (NCI-H522 lung): 8.78 µM | TGI (SW-620 colon): 25.1 µM | TGI (OVCAR-3 ovarian): 15.1 µM | TGI (SF-539 CNS): 27.9 µM | TGI (DMS 273 small cell lung): 20.5 µM | TGI (DMS 114 small cell lung): 9.11 µM | TGI (HCC-2998 colon): 17.8 µM | TGI (RXF 393 renal): 9.95 µM | TGI (EKVX NSCLC): 11 µM | TGI (SF-295 CNS): 23.1 µM | TGI (SN12K1 renal): 17.6 µM | TGI (COLO 205 colon): 22.8 µM | TGI (OVCAR-4 ovarian): 34 µM | TGI (HCT-116 colon): 19 µM | TGI (HOP-92 NSCLC): 9.96 µM | TGI (UACC-62 melanoma): 17.2 µM | TGI (KM20L2 colon): 40.4 µM
